In US8927501B2, “αvβ6 peptide ligands and their uses” (priority 2005, dated 2015):
Where a SMILES comes first, the peptide text is derived from it. Where no end group is shown, it is not given here. The star is where a group is joined. Biotin = O=C1N[C@H]2[C@H](CS[C@H]2CCCCC(=O)*)N1; Ahx = NCCCCCC(=O)O

Key:
A375Pβ6puro = format: cell-based, human
A375Ppuro = format: cell-based, human
αvβ6 [1] = molecular target: T1, αvβ6 (Homo sapiens, UniProt P06756+P18564); assay: Cell adhesion assay: αvβ6-dependent adhesion of VB6 cells to LAP; format: cell-based
T1 construct: endogenous in cells; host or cells: VB6 human oral squamous cell carcinoma
T1 sequence (P06756 31-1048): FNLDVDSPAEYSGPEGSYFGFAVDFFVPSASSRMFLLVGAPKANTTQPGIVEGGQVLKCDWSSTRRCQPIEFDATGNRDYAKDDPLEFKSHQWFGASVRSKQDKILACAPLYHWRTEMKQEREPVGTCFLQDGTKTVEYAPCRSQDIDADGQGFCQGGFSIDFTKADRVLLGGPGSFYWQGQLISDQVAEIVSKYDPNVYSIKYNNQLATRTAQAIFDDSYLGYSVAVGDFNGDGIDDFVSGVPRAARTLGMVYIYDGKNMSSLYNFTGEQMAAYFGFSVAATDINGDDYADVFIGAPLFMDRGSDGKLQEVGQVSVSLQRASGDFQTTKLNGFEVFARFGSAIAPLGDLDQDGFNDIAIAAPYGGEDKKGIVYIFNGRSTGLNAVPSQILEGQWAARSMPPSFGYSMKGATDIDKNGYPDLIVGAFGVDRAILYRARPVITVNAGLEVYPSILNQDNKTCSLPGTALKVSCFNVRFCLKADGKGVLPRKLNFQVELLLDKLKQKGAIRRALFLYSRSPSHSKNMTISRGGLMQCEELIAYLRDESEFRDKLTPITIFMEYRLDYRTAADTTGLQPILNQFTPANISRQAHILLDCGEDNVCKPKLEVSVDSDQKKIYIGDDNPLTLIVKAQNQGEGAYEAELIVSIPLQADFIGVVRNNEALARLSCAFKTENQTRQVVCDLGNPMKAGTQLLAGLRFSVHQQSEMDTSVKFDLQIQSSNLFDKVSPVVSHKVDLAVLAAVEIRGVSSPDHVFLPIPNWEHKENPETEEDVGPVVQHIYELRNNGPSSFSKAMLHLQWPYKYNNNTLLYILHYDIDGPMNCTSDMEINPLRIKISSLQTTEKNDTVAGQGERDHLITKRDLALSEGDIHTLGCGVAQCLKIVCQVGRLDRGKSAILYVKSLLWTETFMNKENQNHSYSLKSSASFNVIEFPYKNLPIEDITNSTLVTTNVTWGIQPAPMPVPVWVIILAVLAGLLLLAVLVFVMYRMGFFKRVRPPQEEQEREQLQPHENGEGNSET
T1 sequence (P18564 22-788): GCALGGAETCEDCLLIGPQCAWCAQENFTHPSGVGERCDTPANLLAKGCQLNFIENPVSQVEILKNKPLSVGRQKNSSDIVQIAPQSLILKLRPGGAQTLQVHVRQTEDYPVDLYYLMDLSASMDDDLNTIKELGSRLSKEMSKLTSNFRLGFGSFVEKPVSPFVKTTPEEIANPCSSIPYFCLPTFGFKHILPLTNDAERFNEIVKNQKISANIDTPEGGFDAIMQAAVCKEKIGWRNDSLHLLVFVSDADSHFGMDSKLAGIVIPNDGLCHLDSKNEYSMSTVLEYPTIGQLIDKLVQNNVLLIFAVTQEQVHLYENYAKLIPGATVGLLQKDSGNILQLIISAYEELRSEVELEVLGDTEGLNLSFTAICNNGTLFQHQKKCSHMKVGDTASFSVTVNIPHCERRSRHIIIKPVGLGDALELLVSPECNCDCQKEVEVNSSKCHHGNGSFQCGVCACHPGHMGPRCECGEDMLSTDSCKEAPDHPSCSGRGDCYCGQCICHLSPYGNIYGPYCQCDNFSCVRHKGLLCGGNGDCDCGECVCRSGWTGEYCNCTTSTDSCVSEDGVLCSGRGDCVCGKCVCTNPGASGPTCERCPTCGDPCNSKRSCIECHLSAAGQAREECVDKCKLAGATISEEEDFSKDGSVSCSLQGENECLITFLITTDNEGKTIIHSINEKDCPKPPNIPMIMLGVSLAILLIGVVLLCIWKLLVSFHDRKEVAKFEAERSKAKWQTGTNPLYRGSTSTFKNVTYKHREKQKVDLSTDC

αvβ6 [2] = molecular target: αvβ6 (UniProt P18564+P43406); assay: cell-based; parameters: species or system mouse
rsαvβ6 [3] = molecular target: T2, rsαvβ6 (Homo sapiens, UniProt P06756+P18564); assay: biochemical; format: binding
T2 sequence (P06756 31-992 limits assumed): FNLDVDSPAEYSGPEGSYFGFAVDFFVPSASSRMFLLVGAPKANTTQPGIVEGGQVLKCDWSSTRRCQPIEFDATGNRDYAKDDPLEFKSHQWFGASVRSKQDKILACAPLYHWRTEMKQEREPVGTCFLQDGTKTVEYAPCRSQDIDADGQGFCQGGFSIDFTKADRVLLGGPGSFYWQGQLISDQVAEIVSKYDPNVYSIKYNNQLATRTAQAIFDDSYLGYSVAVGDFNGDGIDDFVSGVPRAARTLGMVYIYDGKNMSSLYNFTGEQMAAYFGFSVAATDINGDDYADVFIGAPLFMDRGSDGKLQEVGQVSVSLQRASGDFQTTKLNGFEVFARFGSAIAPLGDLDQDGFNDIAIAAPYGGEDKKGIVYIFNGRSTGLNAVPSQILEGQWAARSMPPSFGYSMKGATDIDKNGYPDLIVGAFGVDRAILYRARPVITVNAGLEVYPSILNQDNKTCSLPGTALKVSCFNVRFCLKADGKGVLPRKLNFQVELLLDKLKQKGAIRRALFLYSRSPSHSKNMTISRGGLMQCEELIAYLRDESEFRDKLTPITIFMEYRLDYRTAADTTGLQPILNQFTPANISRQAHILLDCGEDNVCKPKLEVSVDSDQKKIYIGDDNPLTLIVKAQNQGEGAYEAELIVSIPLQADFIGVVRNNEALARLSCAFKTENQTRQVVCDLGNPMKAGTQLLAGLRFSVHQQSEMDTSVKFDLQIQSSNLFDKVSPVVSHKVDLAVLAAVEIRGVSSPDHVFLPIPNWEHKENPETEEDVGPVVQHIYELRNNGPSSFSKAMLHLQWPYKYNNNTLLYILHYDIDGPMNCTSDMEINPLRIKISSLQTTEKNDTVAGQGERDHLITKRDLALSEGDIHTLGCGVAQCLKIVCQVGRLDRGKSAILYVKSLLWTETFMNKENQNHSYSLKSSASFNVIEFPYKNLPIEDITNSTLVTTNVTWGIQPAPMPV
T2 sequence (P18564 22-709 limits assumed): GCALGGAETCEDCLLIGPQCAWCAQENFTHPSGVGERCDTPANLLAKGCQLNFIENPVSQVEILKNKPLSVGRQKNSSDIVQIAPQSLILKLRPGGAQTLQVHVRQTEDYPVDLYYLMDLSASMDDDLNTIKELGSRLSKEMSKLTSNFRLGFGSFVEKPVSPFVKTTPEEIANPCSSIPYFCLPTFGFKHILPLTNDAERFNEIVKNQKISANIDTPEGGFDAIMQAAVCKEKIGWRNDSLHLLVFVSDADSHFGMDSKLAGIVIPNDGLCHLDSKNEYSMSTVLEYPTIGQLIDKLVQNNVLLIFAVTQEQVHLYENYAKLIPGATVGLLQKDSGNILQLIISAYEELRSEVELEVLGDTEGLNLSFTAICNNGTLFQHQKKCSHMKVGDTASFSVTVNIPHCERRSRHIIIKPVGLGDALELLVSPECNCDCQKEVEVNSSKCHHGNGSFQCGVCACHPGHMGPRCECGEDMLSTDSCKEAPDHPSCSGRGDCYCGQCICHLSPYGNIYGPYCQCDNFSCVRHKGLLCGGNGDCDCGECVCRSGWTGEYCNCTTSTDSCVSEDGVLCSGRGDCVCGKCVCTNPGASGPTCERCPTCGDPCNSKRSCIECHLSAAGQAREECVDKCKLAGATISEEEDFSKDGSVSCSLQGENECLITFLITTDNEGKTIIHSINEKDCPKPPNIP

rsαvβ6 [4] = molecular target: T2, rsαvβ6; assay: biochemical; format: binding; remark: listed apart in the source

`CC(C)C[C@H](NC(=O)[C@H](Cc1cnc[nH]1)NC(=O)[C@H](CCCNC(=N)N)NC(=O)[C@H](C)NC(=O)[C@H](Cc1cnc[nH]1)NC(=O)[C@@H](NC(=O)[C@@H](NC(=O)[C@@H](NC(=O)[C@H](CC(C)C)NC(=O)[C@H](Cc1cnc[nH]1)NC(=O)[C@H](C)NC(=O)[C@H](CC(C)C)NC(=O)[C@H](CC(=O)O)NC(=O)CNC(=O)[C@H](CCCNC(=N)N)NC(=O)[C@H](C)NC(=O)[C@H](CO)NC(=O)[C@H](C)NC(=O)[C@@H](NC(=O)[C@@H](N)Cc1ccc(O)cc1)[C@@H](C)O)[C@@H](C)O)[C@@H](C)O)[C@@H](C)O)C(=O)O` [A20FMDV1] was tested, and the “binding to A375Pβ6puro” value (A375Pβ6puro) was “binding to A375Pβ6puro at 1 μM”, the “binding to A375Ppuro” value (A375Ppuro) was “did not bind to A375Ppuro” and the IC50 (αvβ6 [1]) was 38200 ± 31100 nM.

With `CC(C)C[C@H](NC(=O)[C@H](CC(=O)O)NC(=O)CNC(=O)[C@H](CCCNC(=N)N)NC(=O)[C@H](CC(C)C)NC(=O)[C@H](CC(N)=O)NC(=O)[C@@H]1CCCN1C(=O)[C@@H](NC(=O)[C@H](C)NC(=O)[C@@H](N)CC(N)=O)C(C)C)C(=O)N[C@@H](CCC(N)=O)C(=O)N[C@H](C(=O)N[C@@H](CC(C)C)C(=O)N[C@@H](C)C(=O)N[C@@H](CCC(N)=O)C(=O)N[C@@H](CCCCN)C(=O)N[C@H](C(=O)N[C@@H](C)C(=O)N[C@@H](CCCNC(=N)N)C(=O)N[C@H](C(=O)O)[C@@H](C)O)C(C)C)C(C)C` [A20FMDV2] the “binding to A375Pβ6puro” value (A375Pβ6puro) was “observed at 10 μM, 1μM, 0.1 μM, 0.01 μM and 0.00 μM”, the “differential binding A375Pβ6puro versus A375Ppuro” value (A375Pβ6puro) was “four orders of magnitude” and the “binding to A375Ppuro” value (A375Ppuro) was “only at 10 μM”.

For `CC[C@H](C)[C@H](NC(=O)[C@@H](NC(=O)[C@H](C)NC(=O)[C@H](CC(C)C)NC(=O)[C@H](CC(=O)O)NC(=O)CNC(=O)[C@H](CCCNC(=N)N)NC(=O)[C@H](CCCNC(=N)N)NC(=O)CNC(=O)[C@@H](NC(=O)[C@@H](NC(=O)[C@H](Cc1ccccc1)NC(=O)CN)[C@@H](C)O)[C@@H](C)O)[C@@H](C)O)C(=O)N[C@@H](Cc1cnc[nH]1)C(=O)NCC(=O)N[C@@H](CCSC)C(=O)N[C@@H](CC(N)=O)C(=O)N[C@@H](CCCNC(=N)N)C(=O)N1CCC[C@H]1C(=O)N[C@@H](Cc1ccccc1)C(=O)O` [A20LAP], the “adhesion of 3T3β6.19 to LAP, % of control cell adhesion” value (from here on “adhesion … % of control cell adhesion”) (αvβ6 [2]) was 32±7%, the “binding to A375Pβ6puro” value (A375Pβ6puro) was “bound to both cell lines at 10 μM and 1 μM” and the “binding to A375Ppuro” value (A375Ppuro) was “bound to both cell lines at 10 μM and 1 μM”. For the same compound, the “binding of biotinylated peptide to immobilised rsαvβ6” value (from here on “binding of biotinylated peptide”) (rsαvβ6 [3]) was “bound more than A20FMDV1”, the IC50 (αvβ6 [1]) was 28700 ± 11000 nM and the “effect on VB6 adhesion to LAP” value (αvβ6 [1]) was “completely blocks cell adhesion”.

With `CC(C)C[C@H](NC(=O)[C@H](CC(=O)O)NC(=O)CNC(=O)[C@H](CCCNC(=N)N)NC(=O)[C@H](CC(C)C)NC(=O)[C@H](CC(N)=O)NC(=O)[C@@H]1CCCN1C(=O)[C@@H](NC(=O)[C@H](C)NC(=O)[C@H](CC(N)=O)NC(=O)CCCCCNC(=O)CCCC[C@@H]1SC[C@@H]2NC(=O)N[C@@H]21)C(C)C)C(=O)N[C@@H](CCC(N)=O)C(=O)N[C@H](C(=O)N[C@@H](CC(C)C)C(=O)N[C@@H](C)C(=O)N[C@@H](CCC(N)=O)C(=O)N[C@@H](CCCCN)C(=O)N[C@H](C(=O)N[C@@H](C)C(=O)N[C@@H](CCCNC(=N)N)C(=O)N[C@H](C(=O)O)[C@@H](C)O)C(C)C)C(C)C` [B-A20FMDV2] the “binding to A375Pβ6 in the presence of 63G9” value (from here on “binding to A375Pβ6 … of 63G9”) (A375Pβ6puro) was “completely abolished”, the “binding to A375Pβ6 in the presence of control IgG” value (from here on “binding … of control IgG”) (A375Pβ6puro) was “bound strongly” and the “binding to A375Pβ6puro” value (A375Pβ6puro) was “high levels of binding at concentrations as low as 1 nM”. The “binding to A375Ppuro” value (A375Ppuro) was “only low levels of binding”.

For `CC(C)C[C@@H]1NC(=O)[C@H](CC(=O)O)NC(=O)CNC(=O)[C@H](CCCNC(=N)N)NC(=O)[C@H](CC(C)C)NC(=O)[C@H](CC(N)=O)NC(=O)[C@@H]2CCCN2C(=O)[C@@H](NC(=O)[C@@H](CCCCN)NC(=O)[C@@H](Cc2ccc(O)cc2)NC(=O)[C@@H](CCC(=O)O)NC(=O)CCCCCNC(=O)CCCC[C@@H]2SC[C@@H]3NC(=O)N[C@@H]32)CSSC[C@@H](C(=O)N[C@@H](CCCNC(=N)N)C(=O)N[C@H](C(=O)N[C@@H](CCCCN)C(=O)O)[C@@H](C)O)NC(=O)[C@H](C(C)C)NC(=O)[C@H](CCCCN)NC(=O)[C@H](CCC(N)=O)NC(=O)[C@H](C)NC(=O)[C@H](CC(C)C)NC(=O)[C@H](C(C)C)NC(=O)[C@H](CCC(N)=O)NC1=O` [B-DBD1], the “binding to A375Pβ6 … of 63G9” value (A375Pβ6puro) was “greatly reduced”, the “binding … of control IgG” value (A375Pβ6puro) was “bound strongly” and the “binding to A375Pβ6puro” value (A375Pβ6puro) was “high levels of binding at concentrations as low as 1 nM”. The “binding to A375Ppuro” value (A375Ppuro) was “only low levels of binding”, the EC50 (rsαvβ6 [3]) was 0.69 nM and the “binding of biotinylated peptide” value (rsαvβ6 [3]) was “concentration-dependent binding”.

`CC(C)C[C@@H]1NC(=O)[C@H](CC(=O)O)NC(=O)CNC(=O)[C@H](CCCNC(=N)N)NC(=O)[C@H](CC(C)C)NC(=O)[C@H](CC(N)=O)NC(=O)[C@@H]2CCCN2C(=O)[C@H](C(C)C)NC(=O)[C@H](Cc2ccc(O)cc2)NC(=O)[C@@H](NC(=O)CCCCCNC(=O)CCCC[C@@H]2SC[C@@H]3NC(=O)N[C@@H]32)CSSC[C@@H](C(=O)O)NC(=O)[C@H](CCCCN)NC(=O)[C@H](C)NC(=O)[C@H](C(C)C)NC(=O)[C@H](CCCCN)NC(=O)[C@H](CCC(N)=O)NC(=O)[C@H](C)NC(=O)[C@H](CC(C)C)NC(=O)[C@H](C(C)C)NC(=O)[C@H](CCC(N)=O)NC1=O` [B-DBD2] was tested, and the “binding to A375Pβ6 … of 63G9” value (A375Pβ6puro) was “completely abolished”, the “binding … of control IgG” value (A375Pβ6puro) was “bound strongly” and the “binding to A375Pβ6puro” value (A375Pβ6puro) was “high levels of binding at concentrations as low as 1 nM”. For the same compound, the “binding to A375Ppuro” value (A375Ppuro) was “only low levels of binding”, the EC50 (rsαvβ6 [3]) was 1.7 nM and the “binding of biotinylated peptide” value (rsαvβ6 [3]) was “concentration-dependent binding”.

For `CC[C@H](C)[C@H](NC(=O)[C@@H](NC(=O)[C@H](C)NC(=O)[C@H](CC(C)C)NC(=O)[C@H](CC(=O)O)NC(=O)CNC(=O)[C@H](CCCNC(=N)N)NC(=O)[C@@H](N)CCCNC(=N)N)[C@@H](C)O)C(=O)N[C@@H](Cc1c[nH]cn1)C(=O)O` [DD1], the IC50 (αvβ6 [2]) was 216000 nM and the “adhesion … % of control cell adhesion” value (αvβ6 [2]) was 57±4%.

In the case of `CC[C@H](C)[C@H](NC(=O)[C@@H](NC(=O)[C@H](C)NC(=O)[C@H](CC(C)C)NC(=O)[C@H](CC(=O)O)NC(=O)CNC(=O)[C@H](CCCNC(=N)N)NC(=O)[C@H](CCCNC(=N)N)NC(=O)CNC(=O)[C@@H](NC(=O)[C@@H](NC(=O)[C@@H](N)Cc1ccccc1)[C@@H](C)O)[C@@H](C)O)[C@@H](C)O)C(=O)O` [DD2] (H-FTTGRRGDLATI-OH; N-terminus and C-terminus assumed), the IC50 (rsαvβ6 [4]) is reported as 30.9 nM and the “effect on VB6 adhesion to LAP” value (αvβ6 [1]) is reported as “little effect”.

With `CC[C@H](C)[C@H](NC(=O)[C@@H](NC(=O)[C@H](C)NC(=O)[C@H](CC(C)C)NC(=O)[C@H](CC(=O)O)NC(=O)CNC(=O)[C@H](CCCNC(=N)N)NC(=O)[C@H](CCCNC(=N)N)NC(=O)CNC(=O)[C@@H](N)[C@@H](C)O)[C@@H](C)O)C(=O)O` [DD3] (H-TGRRGDLATI-OH; N-terminus and C-terminus assumed) the “adhesion … % of control cell adhesion” value (αvβ6 [2]) was 79±22%, the IC50 (rsαvβ6 [4]) was 22.6 nM and the “effect on VB6 adhesion to LAP” value (αvβ6 [1]) was “little effect”.

With `CC(C)C[C@H](NC(=O)[C@H](CC(=O)O)NC(=O)CNC(=O)[C@H](CCCNC(=N)N)NC(=O)[C@H](CC(C)C)NC(=O)[C@H](CC(N)=O)NC(=O)[C@@H]1CCCN1C(=O)[C@@H](N)C(C)C)C(=O)N[C@@H](CCC(N)=O)C(=O)N[C@H](C(=O)N[C@@H](CC(C)C)C(=O)N[C@@H](C)C(=O)O)C(C)C` [DD19] the IC50 (αvβ6 [2]) was 190000 nM, the IC50 (rsαvβ6 [4]) was 85 nM and the “VB6 adhesion to LAP in the presence of peptide” value (αvβ6 [1]) was “the same as adhesion in the absence of peptide”.

For `CC(C)C[C@H](NC(=O)[C@H](CC(=O)O)NC(=O)CNC(=O)[C@H](CCCNC(=N)N)NC(=O)[C@H](CC(C)C)NC(=O)[C@H](CC(N)=O)NC(=O)[C@@H]1CCCN1C(=O)[C@@H](NC(=O)[C@H](C)NC(=O)[C@@H](N)CC(N)=O)C(C)C)C(=O)N[C@@H](CCC(N)=O)C(=O)N[C@@H](C(=O)N[C@@H](CC(C)C)C(=O)N[C@@H](C)C(=O)N[C@@H](CCC(N)=O)C(=O)N[C@@H](CCCCN)C(=O)N[C@@H](C(=O)N[C@@H](C)C(=O)N[C@@H](CCCNC(=N)N)C(=O)N[C@H](C(=O)O)[C@@H](C)O)C(C)C)C(C)C` [DV1217], the “binding to A375Pβ6puro” value (A375Pβ6puro) was “bound to A375Pβ6 at 10 μM and at 1 μM”, the “loss of anti-αvβ6 potency versus A20FMDV2” value (A375Pβ6puro) was 1000 fold and the “binding to A375Ppuro” value (A375Ppuro) was “did not bind noticeably”.

With `CC(C)C[C@H](NC(=O)[C@H](CC(=O)O)NC(=O)CNC(=O)[C@H](CCCNC(=N)N)NC(=O)[C@H](C)NC(=O)[C@H](C)NC(=O)[C@H](C)NC(=O)[C@@H](N)CO)C(=O)N[C@@H](CCC(=O)O)C(=O)N[C@@H](CCC(N)=O)C(=O)N[C@@H](CC(C)C)C(=O)N[C@H](C(=O)N[C@@H](CO)C(=O)N[C@@H](CC(C)C)C(=O)N[C@@H](CC(C)C)C(=O)N[C@@H](CCC(N)=O)C(=O)N[C@@H](CC(N)=O)C(=O)N[C@@H](CC(N)=O)C(=O)N[C@H](C(=O)N[C@@H](CC(N)=O)C(=O)O)C(C)C)[C@@H](C)O` [P-INK] (H-SAAARGDLEQLTSLLQNNVN-OH; N-terminus assumed) the “inhibition of αvβ6-dependent adhesion / binding affinity to αvβ6” value (αvβ6 [2]) was “inhibited αvβ6-dependent adhesion”.

In the case of “Biotin-εAhx-eykCKLVGALQPDNVLQRCRTK [B-Ran, reference compound]”, the “binding to A375Pβ6 … of 63G9” value (A375Pβ6puro) is reported as “did not bind”, the “binding … of control IgG” value (A375Pβ6puro) is reported as “did not bind” and the “binding to A375Pβ6puro” value (A375Pβ6puro) is reported as “did not bind”. For the same compound, the “binding to A375Ppuro” value (A375Ppuro) was “did not bind” and the “binding of biotinylated peptide” value (rsαvβ6 [3]) was “did not show any binding”.

In the case of SAAARGDLEQLTSLLQNNVNV [P18-INK], the “inhibition of αvβ6-dependent adhesion / binding affinity to αvβ6” value (αvβ6 [2]) is reported as “significantly greater than that of DD19”.

“{Biotin-Ahx}-PGRTFHRFGMGAITRTGNDL [B-A20LAP-Ran, reference compound]” was tested, and the “binding of biotinylated peptide” value (rsαvβ6 [3]) was “did show binding at 10 μM and 1 μM”.
